{
  "source": "ChEMBL document CHEMBL6177983",
  "about": "“PSMA-Guided PROTAC Degraders for Tumor-Specific Protein Degradation in Prostate Cancer” (J Med Chem, 2025)",
  "key": {"LNCaP [1]": {"test_system": "LNCaP", "test": "Cytotoxicity against human LNCaP cells assessed as cell viability incubated for 72 hrs by CCK-8 assay", "format": "functional, cell-based"}, "LNCaP [2]": {"test_system": "LNCaP", "test": "Antitumor activity against human LNCaP cells xenografted in BALB/c mouse assessed as tumor growth inhibition at 1.02 mmol/L, iv administered every day for 21 days", "format": "functional", "conditions": "504 h, time 21 day, read-out: TGI"}, "DU-145": {"test_system": "DU-145", "test": "Cytotoxicity against human DU-145 cells assessed as cell viability incubated for 72 hrs by CCK-8 assay", "format": "functional, cell-based"}, "J82": {"test_system": "J82", "test": "Cytotoxicity against human J82 cells assessed as cell viability incubated for 72 hrs by CCK-8 assay", "format": "functional, cell-based"}, "LNCaP [3]": {"test_system": "LNCaP", "test": "Antitumor activity against human LNCaP cells xenografted in BALB/c mouse assessed as tumor growth inhibition at 0.51 mmol/L, iv administered every day for 21 days", "format": "functional", "conditions": "504 h, time 21 day, read-out: TGI"}, "HEK-293T": {"test_system": "HEK-293T", "test": "Cytotoxicity against HEK293T cells assessed as cell viability incubated for 72 hrs by CCK-8 assay", "format": "toxicity, cell-based", "conditions": "human"}, "Mus musculus": {"test_system": "Mus musculus", "test": "In vivo PROTAC activity at BRD4/VHL in BALB/c mouse xenografted with human LNCaP cells assessed as reduction in AR level in tumor at 1 mmol/L, iv measured for 3 days by Western blot analysis", "format": "functional, organism-based", "conditions": "time 3.0 day"}, "VCaP": {"test_system": "VCaP", "test": "Cytotoxicity against human VCaP cells assessed as cell viability incubated for 72 hrs by CCK-8 assay", "format": "functional, cell-based"}, "CWR22R": {"test_system": "CWR22R", "test": "Cytotoxicity against human 22Rv1 cells assessed as cell viability incubated for 72 hrs by CCK-8 assay", "format": "functional, cell-based"}, "[4]": {"biological_target": "T1, von Hippel-Lindau disease tumor suppressor/Androgen receptor (Homo sapiens, UniProt P10275+P40337)", "T1 sequence (P10275 whole entry, looked up)": "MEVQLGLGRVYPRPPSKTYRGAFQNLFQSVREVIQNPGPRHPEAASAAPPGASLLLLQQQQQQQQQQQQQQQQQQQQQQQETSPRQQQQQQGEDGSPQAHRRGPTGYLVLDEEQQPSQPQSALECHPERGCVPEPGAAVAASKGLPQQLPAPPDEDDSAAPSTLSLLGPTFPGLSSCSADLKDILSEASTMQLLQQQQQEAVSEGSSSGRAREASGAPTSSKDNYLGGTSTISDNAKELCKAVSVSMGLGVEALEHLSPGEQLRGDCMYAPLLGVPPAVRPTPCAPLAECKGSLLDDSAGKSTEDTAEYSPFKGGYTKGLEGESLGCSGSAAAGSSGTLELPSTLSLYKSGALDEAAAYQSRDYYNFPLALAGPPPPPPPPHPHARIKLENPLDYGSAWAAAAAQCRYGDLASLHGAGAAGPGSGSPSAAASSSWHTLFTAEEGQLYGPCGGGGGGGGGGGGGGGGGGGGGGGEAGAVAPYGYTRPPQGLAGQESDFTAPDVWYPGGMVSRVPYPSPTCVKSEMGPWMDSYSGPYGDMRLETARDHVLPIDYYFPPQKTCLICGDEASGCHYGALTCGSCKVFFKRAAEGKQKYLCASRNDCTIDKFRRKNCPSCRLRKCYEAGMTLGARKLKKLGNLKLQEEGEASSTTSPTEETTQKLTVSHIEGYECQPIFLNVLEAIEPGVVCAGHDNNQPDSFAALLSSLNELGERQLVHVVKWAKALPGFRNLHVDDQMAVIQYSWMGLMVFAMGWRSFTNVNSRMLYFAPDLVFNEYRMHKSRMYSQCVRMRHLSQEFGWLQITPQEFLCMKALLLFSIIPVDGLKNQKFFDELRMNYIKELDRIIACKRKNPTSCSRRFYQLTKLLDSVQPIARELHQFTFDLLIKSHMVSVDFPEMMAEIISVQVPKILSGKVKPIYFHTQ", "T1 sequence (P40337 whole entry, looked up)": "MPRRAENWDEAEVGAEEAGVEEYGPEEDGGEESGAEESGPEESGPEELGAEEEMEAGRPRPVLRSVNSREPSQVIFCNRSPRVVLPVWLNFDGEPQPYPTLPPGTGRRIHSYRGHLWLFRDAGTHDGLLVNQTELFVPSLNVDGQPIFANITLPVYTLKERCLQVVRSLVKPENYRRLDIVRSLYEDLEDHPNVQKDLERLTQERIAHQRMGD", "test": "In vivo PROTAC activity at AR/VHL in BALB/c mouse xenografted with human LNCaP cells assessed as reduction in AR level in tumor at 1 mmol/L, iv measured at 72 hrs by Western blot analysis", "format": "functional, organism-based"}, "[5]": {"biological_target": "T1, von Hippel-Lindau disease tumor suppressor/Androgen receptor", "test": "In vivo PROTAC activity at AR/VHL in BALB/c mouse xenografted with human LNCaP cells assessed as reduction in AR level in tumor at 1 mmol/L, iv measured at 48 hrs by Western blot analysis", "format": "functional, organism-based"}, "LNCaP [6]": {"test_system": "LNCaP", "test": "animal or person", "conditions": "Mus musculus, po, 504 h, read-out: TGI", "description": "Antitumor activity against human LNCaP cells xenografted in BALB/c mouse assessed as tumor growth inhibition at 10 mg/kg, po administered every day for 21 days"}},
  "note": "Calls of active or inactive are those of the source. No cut-off for these calls is given here.",
  "data": [
    {"smiles": "Cc1ncsc1-c1ccc([C@H](C)NC(=O)[C@@H]2C[C@@H](O)CN2C(=O)[C@@H](NC(=O)COCCCOCCNC(=O)C[C@@H]2N=C(c3ccc(Cl)cc3)c3c(sc(C)c3C)-n3c(C)nnc32)C(C)(C)C)cc1", "values": [
      {"measurement": "Activity", "setting": "LNCaP [1]", "result": "Active"},
      {"measurement": "inhibition in vivo at 1020 µM", "setting": "LNCaP [2]", "result": 65.2, "unit": "%"},
      {"measurement": "Activity", "setting": "DU-145", "result": "Active"},
      {"measurement": "Activity", "setting": "J82", "result": "Active"},
      {"measurement": "inhibition in vivo at 510 µM", "setting": "LNCaP [3]", "result": 56.2, "unit": "%"},
      {"measurement": "Activity", "setting": "HEK-293T", "result": "Toxic"},
      {"measurement": "Activity", "setting": "Mus musculus", "result": "Active"},
      {"measurement": "Activity", "setting": "VCaP", "result": "Active"},
      {"measurement": "Activity", "setting": "CWR22R", "result": "Active"}
    ]},
    {"smiles": "Cc1ncsc1-c1ccc(CNC(=O)[C@@H]2C[C@@H](O)CN2C(=O)[C@@H](NC(=O)CCCCCCCCCNC(=O)c2ccc(C(=O)N[C@H]3C(C)(C)[C@H](Oc4ccc(C#N)c(Cl)c4)C3(C)C)cc2)C(C)(C)C)cc1", "values": [
      {"measurement": "Activity", "setting": "[4]", "result": "Active"},
      {"measurement": "Activity", "setting": "[5]", "result": "Active"}
    ]},
    {"smiles": "CNC(=O)c1ccc(N2C(=S)N(c3ccc(C#N)c(C(F)(F)F)c3)C(=O)C2(C)C)cc1F", "note": "[ENZALUTAMIDE]", "values": [
      {"measurement": "inhibition in vivo at 10 mg/kg", "setting": "LNCaP [6]", "result": 59.5, "unit": "%"}
    ]}
  ]
}
